From ChEMBL document CHEMBL1201862, “PubChem BioAssay data set” (2004)
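Protocol summary: plate cells (96-well), add compound at 5 concentrations, incubate 48 h, interpolate endpoints linearly. At the GI50, growth is halved.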 Calls of active or inactive are those of the source. Cut-off read from the data, not from the text of the source: active = GI50 up to about 1.1 µM and inactive = higher.

Legend:
Assay in all cases: NCI-60 cell line screen, 48 h
PC-3 = test system: PC-3
NCI/ADR-RES = test system: NCI/ADR-RES
Hs-578T = test system: Hs-578T
SK-MEL-2 = test system: SK-MEL-2
CAKI-1 = test system: CAKI-1
MDA-N = test system: MDA-N
OVCAR-3 = test system: OVCAR-3
HCT-15 = test system: HCT-15
EKVX = test system: EKVX
MCF7 = test system: MCF7
ACHN = test system: ACHN
SN12C = test system: SN12C
HCC 2998 = test system: HCC 2998
LOX IMVI = test system: LOX IMVI
HT-29 = test system: HT-29
MDA-MB-231 = test system: MDA-MB-231
HOP-62 = test system: HOP-62
K562 = test system: K562

Structure (SMILES)	GI50 (PC-3)	GI50 (NCI/ADR-RES)	GI50 (Hs-578T)	GI50 (SK-MEL-2)	GI50 (CAKI-1)	GI50 (MDA-N)	GI50 (OVCAR-3)	GI50 (HCT-15) [µM]	GI50 (EKVX)	GI50 (MCF7)	GI50 (ACHN)	GI50 (SN12C)	GI50 (HCC 2998)	GI50 (LOX IMVI)	GI50 (HT-29)	GI50 (MDA-MB-231)	GI50 (HOP-62)	GI50 (K562)
CCCCCCCCCCCCCCCCOCC(O)CO (configuration not stated)	16.5 µM (inactive)	16.7 µM (inactive)	18.4 µM (inactive)	20.6 µM (inactive)	17.6 µM (inactive)	25.7 µM (inactive)	20.7 µM (inactive)	18.7	18.2 µM (inactive)	22.2 µM (inactive)	18.8 µM (inactive)	19.2 µM (inactive)	17.3 µM (inactive)	17.8 µM (inactive)	17.3 µM (inactive)	18.5 µM (inactive)	19.6 µM (inactive)	
S=C(NCc1ccccn1)N/N=C/c1ccccn1	< 0.01 µM (active)	< 0.01 µM (active)	1.14 µM (inactive)	0.0234 µM (active)	< 0.01 µM (active)	0.454 µM (active)	< 0.01 µM (active)	< 0.01	< 0.0194 µM (active)	< 0.01 µM (active)	< 0.01 µM (active)	0.0724 µM (active)	0.229 µM (active)	< 0.0167 µM (active)		< 0.01 µM (active)	< 0.01 µM (active)	< 0.01 µM (active)
CCOC(=O)CC(c1ccccc1)C(C)(C(=O)OCC)C(=O)OCC (configuration not stated)	77.6 µM (inactive)	> 100 µM (inactive)	> 100 µM (inactive)	> 100 µM (inactive)	> 100 µM (inactive)	> 10 µM (inactive)		> 100	> 100 µM (inactive)	> 100 µM (inactive)	> 100 µM (inactive)	> 100 µM (inactive)	> 100 µM (inactive)	> 100 µM (inactive)	> 100 µM (inactive)	> 100 µM (inactive)	> 100 µM (inactive)	> 100 µM (inactive)
Cc1oc(N)c(S(=O)(=O)c2cc3ccccc3[n+]([O-])c2N)c1C	> 100 µM (inactive)	> 100 µM (inactive)	> 100 µM (inactive)	> 100 µM (inactive)	> 100 µM (inactive)	> 100 µM (inactive)	> 100 µM (inactive)	> 100	> 100 µM (inactive)	> 100 µM (inactive)	> 100 µM (inactive)	> 100 µM (inactive)	> 100 µM (inactive)	> 100 µM (inactive)	> 100 µM (inactive)	> 100 µM (inactive)	> 100 µM (inactive)	
C/C(CC1C2CCCC1C2)=N\NC(N)=O (configuration not stated)	> 100 µM (inactive)	> 100 µM (inactive)	> 100 µM (inactive)	> 100 µM (inactive)	> 100 µM (inactive)	> 100 µM (inactive)	7.24 µM (inactive)	> 100	> 100 µM (inactive)	> 100 µM (inactive)	> 100 µM (inactive)	> 100 µM (inactive)	> 100 µM (inactive)	> 100 µM (inactive)	> 100 µM (inactive)	> 100 µM (inactive)	> 100 µM (inactive)	
NC(=O)CC(/N=C1\C(=O)OC(C(O)CO)\C1=N/C(CC(N)=O)C(=O)O)C(=O)O (configuration not stated)	> 100 µM (inactive)	> 100 µM (inactive)	> 100 µM (inactive)	> 100 µM (inactive)	> 100 µM (inactive)	> 100 µM (inactive)		> 100	> 100 µM (inactive)	> 100 µM (inactive)	> 100 µM (inactive)	> 100 µM (inactive)	> 100 µM (inactive)		> 100 µM (inactive)	> 100 µM (inactive)	> 100 µM (inactive)	> 100 µM (inactive)
O=C(NCCNCCCNC(=O)c1cc(-c2ccccc2)nc2ccccc12)c1cccc(OCc2ccccc2)c1OCc1ccccc1	1.67 µM (inactive)	1.87 µM (inactive)	2.58 µM (inactive)		1.61 µM (inactive)	1.66 µM (inactive)	1.95 µM (inactive)	1.74	1.69 µM (inactive)	1.66 µM (inactive)	1.73 µM (inactive)	1.77 µM (inactive)	1.26 µM (inactive)	1.57 µM (inactive)	1.63 µM (inactive)	1.71 µM (inactive)	1.65 µM (inactive)	1.74 µM (inactive)
Cc1cc(-n2c(/C=C/c3ccc(Cl)cc3)nc3cc(Cl)ccc3c2=O)on1	> 50 µM (inactive)	14.4 µM (inactive)	8.32 µM (inactive)		> 50 µM (inactive)	24.8 µM (inactive)	10.1 µM (inactive)	28.1	22.4 µM (inactive)	18.9 µM (inactive)	7.57 µM (inactive)	20.5 µM (inactive)	> 50 µM (inactive)	15.1 µM (inactive)	> 50 µM (inactive)	15.6 µM (inactive)	7.62 µM (inactive)	> 50 µM (inactive)
CC1(C)N=C(C2CCCN2C(=O)OCc2ccccc2)OC1=O (configuration not stated)	> 100 µM (inactive)	> 100 µM (inactive)	> 100 µM (inactive)	> 100 µM (inactive)	> 100 µM (inactive)	> 100 µM (inactive)	> 100 µM (inactive)	> 100		> 100 µM (inactive)	> 100 µM (inactive)	> 100 µM (inactive)	> 100 µM (inactive)	> 100 µM (inactive)	> 100 µM (inactive)	> 100 µM (inactive)	> 100 µM (inactive)	> 100 µM (inactive)
Cc1ccc2c(c1)/C(=N/Nc1ccccc1[N+](=O)[O-])C(=O)N2	24.8 µM (inactive)	3.72 µM (inactive)	3.93 µM (inactive)	> 100 µM (inactive)	3.32 µM (inactive)	3.37 µM (inactive)	4.85 µM (inactive)	> 100	2.65 µM (inactive)	12 µM (inactive)		3.82 µM (inactive)	> 100 µM (inactive)	4.36 µM (inactive)	31.6 µM (inactive)	1.61 µM (inactive)	2.82 µM (inactive)	27.9 µM (inactive)
Cn1c(=O)c2c(nc(N/N=C3/SCC(=O)N3Cc3ccccc3)n2C)n(C)c1=O	39.2 µM (inactive)	> 100 µM (inactive)	60.8 µM (inactive)	58.7 µM (inactive)	> 100 µM (inactive)	> 100 µM (inactive)	20.9 µM (inactive)	85.5	94.2 µM (inactive)	81.7 µM (inactive)	> 100 µM (inactive)	> 100 µM (inactive)	> 100 µM (inactive)		48.4 µM (inactive)	60.7 µM (inactive)	> 100 µM (inactive)	< 0.01 µM (active)
Fc1ccccc1C1SCc2nc3cc4ccccc4cc3n21 (configuration not stated)	78.3 µM (inactive)	49.1 µM (inactive)	26.5 µM (inactive)	> 100 µM (inactive)	37 µM (inactive)	79.1 µM (inactive)	> 100 µM (inactive)	94.8	67.6 µM (inactive)	22.7 µM (inactive)	28.8 µM (inactive)	36.1 µM (inactive)	72.6 µM (inactive)		43.9 µM (inactive)	13.2 µM (inactive)	> 100 µM (inactive)	> 100 µM (inactive)
Cc1c(Cl)nc(Cl)nc1Cl	2 µM (inactive)	1.36 µM (inactive)	3.12 µM (inactive)		0.273 µM (active)	2.18 µM (inactive)	1.85 µM (inactive)	0.287	1.9 µM (inactive)	0.984 µM (active)	0.421 µM (active)	2.69 µM (inactive)	1.2 µM (inactive)	0.373 µM (active)	0.818 µM (active)	1.43 µM (inactive)	4.97 µM (inactive)	0.6 µM (active)
CC1CCC2(CC1)NC1=C(CC(C)CC1)C1=C2CC(C)CC1 (configuration not stated)	16.1 µM (inactive)	> 10 µM (inactive)	26.9 µM (inactive)	21.8 µM (inactive)	22 µM (inactive)	31.3 µM (inactive)	17.6 µM (inactive)	18.1	39.1 µM (inactive)	17.6 µM (inactive)	23.3 µM (inactive)		18.6 µM (inactive)	18.3 µM (inactive)	16.7 µM (inactive)	20.5 µM (inactive)		17.2 µM (inactive)
CN1COCc2c1ccc1cc3ccc4c(c3nc21)COCN4S(C)(=O)=O	> 100 µM (inactive)	> 100 µM (inactive)	95.9 µM (inactive)		> 100 µM (inactive)	> 100 µM (inactive)	> 100 µM (inactive)	> 100	78 µM (inactive)	0.202 µM (active)	> 100 µM (inactive)	> 100 µM (inactive)	> 100 µM (inactive)	> 100 µM (inactive)	> 100 µM (inactive)	> 100 µM (inactive)	> 100 µM (inactive)	> 100 µM (inactive)
O=C(O)Cc1cccc2c(=O)c3cccc([N+](=O)[O-])c3[nH]c12	> 100 µM (inactive)	> 100 µM (inactive)	36 µM (inactive)	72.1 µM (inactive)	> 100 µM (inactive)	> 100 µM (inactive)	99.8 µM (inactive)	71.8		80.9 µM (inactive)	> 100 µM (inactive)	99.1 µM (inactive)	60.3 µM (inactive)	48.2 µM (inactive)	> 100 µM (inactive)	> 100 µM (inactive)	31.4 µM (inactive)	> 100 µM (inactive)
CN(C)c1nc2sc3c(c2c(=O)o1)CCCC3	34.4 µM (inactive)	43 µM (inactive)	16.7 µM (inactive)	25.3 µM (inactive)	35.3 µM (inactive)	38.2 µM (inactive)		33.3	25.5 µM (inactive)	48.3 µM (inactive)	34.1 µM (inactive)	36.9 µM (inactive)	> 100 µM (inactive)	52 µM (inactive)	21 µM (inactive)	41.5 µM (inactive)	25.6 µM (inactive)	32.4 µM (inactive)
